SMILES strings stand for the structures. Where a SMILES comes first, the peptide text is derived from it. [ ]: non-standard residue; d: D form. The star is where a group is joined. NHCH2CH2OH = OCCN*; For = O=C*

Data set [1] can be described thus: H+/Na+ transport assay of bead-derived peptides (one-point).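 Note: relative to parent gramicidin A activity set to 1.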 The settings on record: bead-derived peptide solution, EYPC/EYPG LUVs. Details: key: relative activity; mean of two control wells = 1.00. Format: biochemical. The gist of the method: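 H+/Na+ transport is monitored through pyranine fluorescence in freshly extruded LUVs after a 30-min room-temperature vortex with each library peptide at a single concentration. Signals are normalized to detergent (Triton X-100) and untreated controls.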

For data set [2], the system named is Streptococcus pyogenes SSI-9. In words: Antibacterial activity assay of bead-derived peptides (three concentrations). It counts as cell-based. Details: key: +++: inhibition by the 640-fold diluted peptide solution; ++: inhibition by the 160-fold diluted solution; +: inhibition by the 40-fold diluted solution; -: no inhibition. As to conditions: S. pyogenes, bead-derived peptide solution, three concentrations. The gist of the method:
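Bead-derived library peptide stocks in DMSO were tested undiluted and after 4- and 16-fold DMSO dilution against S. pyogenes SSI-9 (2 × 10^5 CFU/well) in cation-adjusted Mueller Hinton Broth with 5% laked horse blood. After 18 h at 37 °C, wells were scored for precipitation of grown cells.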

Data set [3] has as its system P388 mouse leukemia cells. As to conditions: 92 h. The gist of the method:
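First, library peptide stocks are diluted 250-fold in RPMI1640 with 10% heat-inactivated FBS. Next, they are mixed with P388 cells to give 1 × 10^4 cells/mL and incubated 92 h at 37 °C, 5% CO2. Finally, viability (%) is scored by WST-1 absorbance at 415 nm.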

As to `CC(C)C[C@@H](NC(=O)[C@@H](NC(=O)[C@H](NC(=O)[C@H](C)NC(=O)[C@H](NC(=O)[C@H](C)NC(=O)CNC(=O)[C@@H](NC=O)C(C)C)[C@H](C)O)C(C)C)C(C)C)C(=O)N[C@@H](Cc1c[nH]c2ccccc12)C(=O)N[C@@H](C(=O)N[C@@H](Cc1c[nH]c2ccccc12)C(=O)N[C@@H](C(=O)N[C@@H](Cc1c[nH]c2ccccc12)C(=O)N[C@@H](C(=O)N[C@@H](Cc1c[nH]c2ccccc12)C(=O)NCCO)C(C)C)C(C)C)C(C)C` [compound 5623] (For-VGA[dT]A[dV]V[dL]W[dV]W[dV]W[dV]W-NHCH2CH2OH), the “H+/Na+ transport activity normalized against the value of 1 (1.00)” value (“H+/Na+ transport activity normalized” below) in data set [1] stood at 1.11. For the same compound, the antibacterial activity result in data set [2] is recorded as “-”. Further, in data set [3], the cell viability/% is listed as 80.0%.

On to `CC(C)C[C@@H](NC(=O)[C@H](Cc1c[nH]c2ccccc12)NC(=O)[C@H](NC(=O)[C@H](Cc1c[nH]c2ccccc12)NC(=O)[C@H](NC(=O)[C@@H](NC(=O)[C@H](NC(=O)[C@H](C)NC(=O)[C@H](NC(=O)[C@H](C)NC(=O)CNC(=O)[C@@H](NC=O)C(C)C)C(C)C)C(C)C)C(C)C)C(C)C)C(C)C)C(=O)N[C@@H](Cc1c[nH]c2ccccc12)C(=O)N[C@@H](C(=O)N[C@@H](Cc1c[nH]c2ccccc12)C(=O)NCCO)C(C)C` [compound 5678] (For-VGA[dV]A[dV]V[dV]W[dV]W[dL]W[dV]W-NHCH2CH2OH), for which, in data set [1], the “H+/Na+ transport activity normalized” value is given as 1.11. In addition, the antibacterial activity result in data set [2] is “++”. The cell viability/% in data set [3] was determined as 93.2%.

As for `CC(C)C[C@@H](NC(=O)[C@H](C)NC(=O)CNC(=O)[C@@H](NC=O)C(C)C)C(=O)N[C@@H](C)C(=O)N[C@H](CC(C)C)C(=O)N[C@H](C(=O)N[C@H](CC(C)C)C(=O)N[C@@H](Cc1c[nH]c2ccccc12)C(=O)N[C@@H](C(=O)N[C@@H](Cc1c[nH]c2ccccc12)C(=O)N[C@@H](C(=O)N[C@@H](Cc1c[nH]c2ccccc12)C(=O)N[C@@H](C(=O)N[C@@H](Cc1c[nH]c2ccccc12)C(=O)NCCO)C(C)C)C(C)C)[C@H](C)O)C(C)C` [compound 5679] (For-VGA[dL]A[dL]V[dL]W[dT]W[dV]W[dV]W-NHCH2CH2OH), in data set [1], the “H+/Na+ transport activity normalized” value is given as 1.06. The antibacterial activity result in data set [2] was “-”. Further, the cell viability/% in data set [3] was found to be 90.5%.

In the case of `CC(C)C[C@@H](NC(=O)[C@H](C)NC(=O)[C@H](NC(=O)[C@H](C)NC(=O)CNC(=O)[C@@H](NC=O)C(C)C)C(C)C)C(=O)N[C@H](C(=O)N[C@H](CC(C)C)C(=O)N[C@@H](Cc1c[nH]c2ccccc12)C(=O)N[C@@H](C(=O)N[C@@H](Cc1c[nH]c2ccccc12)C(=O)N[C@H](CC(C)C)C(=O)N[C@@H](Cc1c[nH]c2ccccc12)C(=O)N[C@H](CC(C)C)C(=O)N[C@@H](Cc1c[nH]c2ccccc12)C(=O)NCCO)C(C)C)C(C)C` [compound 5699] (For-VGA[dV]A[dL]V[dL]W[dV]W[dL]W[dL]W-NHCH2CH2OH), the “H+/Na+ transport activity normalized” value in data set [1] is listed as 1.05. Besides, the antibacterial activity entry in data set [2] is listed as “+”. In data set [3], this compound gave a cell viability/% of 36.7%.

Turning to `CNC(=O)C[C@@H](NC(=O)[C@@H](NC(=O)[C@@H](CC(C)C)NC(=O)[C@H](C)NC(=O)[C@@H](CC(C)C)NC(=O)[C@H](C)NC(=O)CNC(=O)[C@@H](NC=O)C(C)C)C(C)C)C(=O)N[C@@H](Cc1c[nH]c2ccccc12)C(=O)N[C@H](CC(C)C)C(=O)N[C@@H](Cc1c[nH]c2ccccc12)C(=O)N[C@H](CC(C)C)C(=O)N[C@@H](Cc1c[nH]c2ccccc12)C(=O)N[C@@H](C(=O)N[C@@H](Cc1c[nH]c2ccccc12)C(=O)NCCO)[C@H](C)O` [compound 5746] (For-VGA[dL]A[dL]V[dD](NHMe)W[dL]W[dL]W[dT]W-NHCH2CH2OH), the “H+/Na+ transport activity normalized” value in data set [1] came to 1.26. Besides, the antibacterial activity entry in data set [2] is given as “-”. In data set [3], this compound yielded a cell viability/% of 100.0%.

For `CNC(=O)C[C@@H](NC(=O)[C@@H](NC(=O)[C@H](NC(=O)[C@H](C)NC(=O)[C@H](NC(=O)[C@H](C)NC(=O)CNC(=O)[C@@H](NC=O)C(C)C)C(C)C)C(C)C)C(C)C)C(=O)N[C@@H](Cc1c[nH]c2ccccc12)C(=O)N[C@H](CC(C)C)C(=O)N[C@@H](Cc1c[nH]c2ccccc12)C(=O)N[C@H](CC(C)C)C(=O)N[C@@H](Cc1c[nH]c2ccccc12)C(=O)N[C@@H](C(=O)N[C@@H](Cc1c[nH]c2ccccc12)C(=O)NCCO)C(C)C` [compound 5771] (For-VGA[dV]A[dV]V[dD](NHMe)W[dL]W[dL]W[dV]W-NHCH2CH2OH), the “H+/Na+ transport activity normalized” value in data set [1] is listed as 1.46. The antibacterial activity result in data set [2] is given as “-”. Further, the cell viability/% in data set [3] is reported as 79.3%.

`CNC(=O)C[C@@H](NC(=O)[C@@H](NC(=O)[C@H](NC(=O)[C@H](C)NC(=O)[C@@H](CC(C)C)NC(=O)[C@H](C)NC(=O)CNC(=O)[C@@H](NC=O)C(C)C)C(C)C)C(C)C)C(=O)N[C@@H](Cc1c[nH]c2ccccc12)C(=O)N[C@@H](C(=O)N[C@@H](Cc1c[nH]c2ccccc12)C(=O)N[C@H](CC(C)C)C(=O)N[C@@H](Cc1c[nH]c2ccccc12)C(=O)N[C@@H](C(=O)N[C@@H](Cc1c[nH]c2ccccc12)C(=O)NCCO)C(C)C)C(C)C` [compound 5778] (For-VGA[dL]A[dV]V[dD](NHMe)W[dV]W[dL]W[dV]W-NHCH2CH2OH): the “H+/Na+ transport activity normalized” value in data set [1] was 1.19. Further, the antibacterial activity result in data set [2] is listed as “-”. In data set [3], this compound came in with a cell viability/% of 77.8%.

Regarding `CC(C)C[C@@H](NC(=O)[C@H](C)NC(=O)[C@H](NC(=O)[C@H](C)NC(=O)CNC(=O)[C@@H](NC=O)C(C)C)C(C)C)C(=O)N[C@H](C(=O)N[C@@H](C(=O)N[C@@H](Cc1c[nH]c2ccccc12)C(=O)N[C@H](CC(C)C)C(=O)N[C@@H](Cc1c[nH]c2ccccc12)C(=O)N[C@H](CC(C)C)C(=O)N[C@@H](Cc1c[nH]c2ccccc12)C(=O)N[C@@H](C(=O)N[C@@H](Cc1c[nH]c2ccccc12)C(=O)NCCO)C(C)C)C(C)C)C(C)C` [compound 5872] (For-VGA[dV]A[dL]V[dV]W[dL]W[dL]W[dV]W-NHCH2CH2OH), the “H+/Na+ transport activity normalized” value in data set [1] is given as 1.02. In addition, in data set [2], the antibacterial activity result is “+”. In addition, in data set [3], the cell viability/% stood at 9.9%.

For `CC(C)C[C@@H](NC(=O)[C@H](Cc1c[nH]c2ccccc12)NC(=O)[C@H](NC(=O)[C@H](Cc1c[nH]c2ccccc12)NC(=O)[C@H](NC(=O)[C@@H](NC(=O)[C@H](NC(=O)[C@H](C)NC(=O)[C@H](NC(=O)[C@H](C)NC(=O)CNC(=O)[C@@H](NC=O)C(C)C)[C@H](C)O)C(C)C)C(C)C)C(C)C)C(C)C)C(=O)N[C@@H](Cc1c[nH]c2ccccc12)C(=O)N[C@@H](C(=O)N[C@@H](Cc1c[nH]c2ccccc12)C(=O)NCCO)C(C)C` [compound 5933] (For-VGA[dT]A[dV]V[dV]W[dV]W[dL]W[dV]W-NHCH2CH2OH), in data set [1], the “H+/Na+ transport activity normalized” value came out at 1.05. For the same compound, the antibacterial activity result in data set [2] is “-”. Moreover, in data set [3], the cell viability/% is 73.0%.

Consider `CC(C)C[C@@H](NC(=O)[C@H](C)NC(=O)CNC(=O)[C@@H](NC=O)C(C)C)C(=O)N[C@@H](C)C(=O)N[C@H](CC(C)C)C(=O)N[C@H](C(=O)N[C@H](CC(C)C)C(=O)N[C@@H](Cc1c[nH]c2ccccc12)C(=O)N[C@@H](C(=O)N[C@@H](Cc1c[nH]c2ccccc12)C(=O)N[C@@H](C(=O)N[C@@H](Cc1c[nH]c2ccccc12)C(=O)N[C@@H](C(=O)N[C@@H](Cc1c[nH]c2ccccc12)C(=O)NCCO)C(C)C)C(C)C)[C@H](C)O)C(C)C` [compound 5996] (For-VGA[dL]A[dL]V[dL]W[dT]W[dV]W[dV]W-NHCH2CH2OH), for which the “H+/Na+ transport activity normalized” value in data set [1] is reported as 1.08. Besides, the antibacterial activity result in data set [2] was “-”. The same compound showed a cell viability/% in data set [3] of 78.7%.

Regarding `CC(C)C[C@@H](NC(=O)[C@H](C)NC(=O)CNC(=O)[C@@H](NC=O)C(C)C)C(=O)N[C@@H](C)C(=O)N[C@H](CC(C)C)C(=O)N[C@H](C(=O)N[C@H](CC(C)C)C(=O)N[C@@H](Cc1c[nH]c2ccccc12)C(=O)N[C@@H](C(=O)N[C@@H](Cc1c[nH]c2ccccc12)C(=O)N[C@H](CC(C)C)C(=O)N[C@@H](Cc1c[nH]c2ccccc12)C(=O)N[C@@H](C(=O)N[C@@H](Cc1c[nH]c2ccccc12)C(=O)NCCO)C(C)C)C(C)C)C(C)C` [compound 6096] (For-VGA[dL]A[dL]V[dL]W[dV]W[dL]W[dV]W-NHCH2CH2OH), the “H+/Na+ transport activity normalized” value in data set [1] turned out to be 1.16. Further, the antibacterial activity result in data set [2] is “+”. In data set [3], the cell viability/% is recorded as 7.3%.

Turning to `CC(C)C[C@@H](NC(=O)[C@H](Cc1c[nH]c2ccccc12)NC(=O)[C@H](NC(=O)[C@H](Cc1c[nH]c2ccccc12)NC(=O)[C@@H](CC(C)C)NC(=O)[C@@H](NC(=O)[C@H](NC(=O)[C@H](C)NC(=O)[C@H](NC(=O)[C@H](C)NC(=O)CNC(=O)[C@@H](NC=O)C(C)C)[C@H](C)O)C(C)C)C(C)C)C(C)C)C(=O)N[C@@H](Cc1c[nH]c2ccccc12)C(=O)N[C@@H](C(=O)N[C@@H](Cc1c[nH]c2ccccc12)C(=O)NCCO)C(C)C` [compound 6116] (For-VGA[dT]A[dV]V[dL]W[dV]W[dL]W[dV]W-NHCH2CH2OH), the “H+/Na+ transport activity normalized” value in data set [1] is 1.13. In addition, the antibacterial activity result in data set [2] is “-”. In data set [3], this compound yielded a cell viability/% of 93.5%.

The values are drawn from article PMC7531004, “Discovery of gramicidin A analogues with altered activities by multidimensional screening of a one-bead-one-compound library” (Nature Communications, 2020).
